Source: patent US20110014164A1, “EFFICIENT INDUCTION OF PLURIPOTENT STEM CELLS USING SMALL MOLECULE COMPOUNDS” (PRESIDENT AND FELLOWS OF HARVARD COLLEGE, priority 2008, published 2011)
Where two headings read alike, the source gives them in different places.

Columns and labels:
[1] = tested on: MEFs infected with the four factors (Oct4, Sox2, Klf4 and c-Myc); experiment: cells; assay type: cell-based, mouse; settings: 4-factor infected MEFs
[2] = tested on: MEFs infected with the four factors (Oct4, Sox2, Klf4 and c-Myc); assay type: cell-based, mouse
Method: FIG. 1(a) MEFs infected with the four factors (Oct4, Sox2, Klf4 and c-Myc) were treated with various chemicals for a week, the percentage of Oct4-GFP positive cells induced was measured through FACS analysis, and compared to infected MEFs without treatment or treated with DMSO (the solvent for Dexamethasone, SAHA and TSA). The chemicals used were: 5′-azaC (2 μM), dexamethasone (dex, 1 μM), 5′-azaC (2 μM) together with dexamethasone (1 μM), VPA (2 mM), SAHA (5 μM) and TSA (20 nM). n=4 for each treatment. For all figures in this study, standard deviations are indicated by error bars, and P values by two-tailed student t-test less than 0.05, 0.01 and 0.001 are indicated by one, two and three asterisks respectively.
To quantitate reprogramming efficiency, we established an assay based on Fluorescence-Activated Cell Sorting (FACS) analysis using an Oct4-GFP transgenic reporter, where the expression of the green fluorescent protein (GFP) is controlled by the promoter and enhancers of Oct4, a pluripotent marker gene^14.
MEFs were derived from e13.5 embryos hemizygous for the Oct4-GFP transgenic allele. Embryos were sexed by inspecting gonads for the pattern of Oct4-GFP expression. Gonads and internal organs were removed before processing the embryos for MEF isolation. To generate iPS cells that can be identified in mouse chimeras after blastocyst injection, we derived MEFs from e13.5 embryos that are hemizygous for Oct4-GFP and heterozygous for the Rosa26-lacZ reporter allele. MEFs were grown in DMEM supplemented with 10% FBS, L-glutamine, penicillin/streptoMycin, nonessential amino acids, and sodium pyruvate. MEFs in early passages (up to passage 5) were used for generation of iPS cells.
Moloney-based retroviral vector (pMXs) containing the murine complementary DNAs of Oct4, Sox2, c-Myc, and Klf4 were obtained from Addgene^1. These plasmids were co-transfected into 293T cells with packaging vectors (pUMVC and pCMV-VSVG), and viral supernatants were collected 48 hours post-transfection to infect MEFs. Two to three rounds of infection were performed during a 48 hour period. The first day after viral supernatants were removed was defined as 0 day post-infection. Infected MEFs were subsequently cultured in mouse ES cell media (Knockout DMEM supplemented with 15% Hyclone FBS, L-glutamine, penicillin/streptoMycin, nonessential amino acids, β-mercaptoethanol, and with 1000 U/ml LIF), and treated with small molecules or growth factors for a week starting from 1 or 2 days post-infection. […] All conditions were tested in quadruplicates.

## COc1cccc(-c2cc(=O)c3ccccc3o2)c1N [PD98059]
[1]; 40 μM
  effect on reprogramming efficiency: no significant effects

## C[C@@H]1C[C@H]2[C@@H]3CCC4=CC(=O)C=C[C@]4(C)[C@@]3(F)[C@@H](O)C[C@]2(C)[C@@]1(O)C(=O)CO [dexamethasone]
[2]
  improvement of the effect of 5′-azaC when used in combination: 2.6 fold
[2]; 1 μM alone, 4-factor infected MEFs
  effect on reprogramming efficiency: no significant effect

## CC(=O)O/N=C1/C(=C2/C(=O)Nc3cc(Br)ccc32)Nc2ccccc21 [BIO-Acetoxime]
[2]; 2 μM, 4-factor infected MEFs
  effect on reprogramming efficiency: no significant effect

## N#CC(=C(/N)Sc1ccccc1N)/C(C#N)=C(\N)Sc1ccccc1N [U0126]
[2]
  effect on reprogramming efficiency: no significant effects

## O=C(CCCCCCC(=O)Nc1ccccc1)NO [SAHA, suberoylanilide hydroxamic acid]
[2]; 5 μM, 4-factor infected MEFs
  improvement over the control DMSO treatment: 10 fold
  percentage of GFP positive cells: approximately 0.198% (±0.102%)

## CC(/C=C/C(=O)NO)=C\[C@@H](C)C(=O)c1ccc(N(C)C)cc1 [TSA, trichostatin A]
[2]; 20 nM, 4-factor infected MEFs
  percentage of GFP positive cells: approximately 1.535% (±0.618%)

## Wnt3a
[1]; 100 ng/ml
  effect on reprogramming efficiency: no significant effect

B1: BMP4: recombinant human Bmp4 from Roche (protein, UniProt P12644 293-408, looked up)
Bone morphogenetic protein 4: SPKHHSQRARKKNKNCRRHSLYVDFSDVGWNDWIVAPPGYQAFYCHGDCPFPLADHLNSTNHAIVQTLVNSVNSSIPKACCVPTELSAISMLYLDEYDKVVLKNYQEMVVEGCGCR
[1]; 100 ng/ml
  effect on reprogramming efficiency: had no effect
